Experimental data taken from US20240239752A1, “BICYCLIC HETEROAROMATIC INHIBITORS OF KLK5” (BioCryst Pharmaceuticals, Inc., priority 2021, published 2024).

Target: T1, recombinant human KLK5 (Homo sapiens, UniProt Q9Y337)
T1 construct: purchased Novoprotein or R&D Systems C415 or 1108-SE
T1 sequence (Q9Y337 23-293): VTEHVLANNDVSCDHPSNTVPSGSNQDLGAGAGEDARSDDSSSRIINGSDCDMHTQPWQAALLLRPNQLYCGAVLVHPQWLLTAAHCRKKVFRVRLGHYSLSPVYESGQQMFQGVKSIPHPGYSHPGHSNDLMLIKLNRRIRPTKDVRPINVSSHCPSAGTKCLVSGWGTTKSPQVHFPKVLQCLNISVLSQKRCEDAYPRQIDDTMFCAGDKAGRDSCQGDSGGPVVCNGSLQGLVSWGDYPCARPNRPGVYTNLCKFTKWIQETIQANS
Assay: Kallikrein (KLK) 5 enzymatic assay (Boc-VPR-AMC fluorogenic substrate)
Assay type: biochemical
Details: recombinant human KLK5 0.1 μg/well, Boc-VPR-AMC 100 μM, pH 7.5, room temperature, 1% DMSO; tested a minimum of three times
Summary of the method: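 Fluorogenic rate assay at pH 7.5 (0.1 M NaH2PO4, 1% DMSO, room temperature), run at least three times per compound. Compound was premixed with 0.1 μg/well recombinant human KLK5 before adding 100 μM Boc-VPR-AMC; AMC release was read at ex 380/em 460 nm, and IC50 derived from inhibition of rate vs DMSO control.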

| SMILES | IC50 |
| --- | --- |
| CCOC(=O)N1CC[C@@H](n2nc(COc3cccc(C)c3CC(=O)O)c3cc(-c4cccc5c(N)nccc45)ccc32)C1 [Compound 341e, (R)-2-(2-((5-(1-aminoisoquinolin-5-yl)-1-(1-(ethoxycarbonyl)pyrrolidin-3-yl)-1H-indazol-3-yl)methoxy)-6-methylphenyl)acetic acid] | < 1000 nM |
| CC(C)OC(=O)N1CC[C@H](n2nc(COc3ccccc3CC(=O)O)c3cc(-c4cccc5c(N)nccc45)ccc32)C1 [Compound 359b, (S)-2-(2-((5-(1-aminoisoquinolin-5-yl)-1-(1-(isopropoxycarbonyl)pyrrolidin-3-yl)-1H-indazol-3-yl)methoxy)phenyl)acetic acid] | < 1000 nM |
| COc1ccc(-c2ccc3c(c2)c(COc2ccccc2CC(=O)O)nn3C(C)C)cc1C(=N)N [Compound 211e, 2-(2-((5-(3-carbamimidoyl-4-methoxyphenyl)-1-isopropyl-1H-indazol-3-yl)methoxy)phenyl)acetic acid] | 1000 to 10000 nM |
| COCCN1CC(n2nc3ccc(-c4ccc5ccnc(N)c5c4)cc3c2COc2ccccc2CC(=O)O)C1 [Compound 122b, 2-(2-((5-(1-aminoisoquinolin-7-yl)-2-(1-(2-methoxyethyl)azetidin-3-yl)-2H-indazol-3-yl)methoxy)phenyl)acetic acid] | 1000 to 10000 nM |
| CCCCn1nc(COc2ccccc2CC(=O)O)c2cc(-c3ccc4ccnc(N)c4c3)ccc21 [Compound 184e, 2-(2-((5-(1-aminoisoquinolin-7-yl)-1-butyl-1H-indazol-3-yl)methoxy)phenyl)acetic acid] | < 1000 nM |
| COCCN1CC(n2nc3ccc(-c4cccc5c(N)nccc45)cc3c2COc2ccccc2CC(=O)O)C1 [Compound 120c, 2-(2-((5-(1-aminoisoquinolin-5-yl)-2-(1-(2-methoxyethyl)azetidin-3-yl)-2H-indazol-3-yl)methoxy)phenyl)acetic acid] | < 1000 nM |
| Nc1nccc2ccc(-c3ccc4c(c3)[C@H](Oc3ccccc3CC(=O)O)CC4)cc12 [Compound 215d, (R)-2-(2-((6-(1-aminoisoquinolin-7-yl)-2,3-dihydro-1H-inden-1-yl)oxy)phenyl)acetic acid] | < 1000 nM |
| N=C(N)c1cccc(-c2ccc3c(c2)c(COc2ccccc2CC(=O)O)nn3C2CCC2)c1 [Compound 28d, 2-(2-((5-(3-carbamimidoylphenyl)-1-cyclobutyl-1H-indazol-3-yl)methoxy)phenyl)acetic acid] | < 1000 nM |
| Nc1nccc2ccc(-c3ccc4c(c3)c(COc3ccccc3CC(=O)O)nn4C3CCNC3)cc12 (stereo not shown) [Compound 91a, 2-(2-((5-(1-aminoisoquinolin-7-yl)-1-(pyrrolidin-3-yl)-1H-indazol-3-yl)methoxy)phenyl)acetic acid] | < 1000 nM |
| Nc1nccc2c(-c3ccc4c(c3)[C@@H](Oc3ccccc3CC(=O)O)CC4)cccc12 [Compound 222b, (S)-2-(2-((6-(1-aminoisoquinolin-5-yl)-2,3-dihydro-1H-inden-1-yl)oxy)phenyl)acetic acid] | 1000 to 10000 nM |
| COc1ccc(CC(=O)O)c(O[C@@H]2CCc3ccc(-c4ccc5ccnc(N)c5c4)cc32)c1 [Compound 419c, (R)-2-(2-((6-(1-aminoisoquinolin-7-yl)-2,3-dihydro-1H-inden-1-yl)oxy)-4-methoxyphenyl)acetic acid] | < 1000 nM |
| Nc1nccc2c(-c3ccc4c(c3)c(COc3ccccc3CC(=O)O)nn4[C@H]3CCOC3)cccc12 [Compound 243h, (S)-2-(2-((5-(1-aminoisoquinolin-5-yl)-1-(tetrahydrofuran-3-yl)-1H-indazol-3-yl)methoxy)phenyl)acetic acid] | < 1000 nM |
| Nc1nccc2c(-c3ccc4c(c3)c(COc3ccccc3CC(=O)O)nn4C3CC3)cccc12 [Compound 65b, 2-(2-((5-(1-aminoisoquinolin-5-yl)-1-cyclopropyl-1H-indazol-3-yl)methoxy)phenyl)acetic acid] | < 1000 nM |
| N=C(N)c1cccc(-c2ccc3nn(C4CCCC4)c(COc4ccccc4CC(=O)O)c3c2)c1 [Compound 22c, 2-(2-((5-(3-carbamimidoylphenyl)-2-cyclopentyl-2H-indazol-3-yl)methoxy)phenyl)acetic acid] | < 1000 nM |
| CCOC(=O)Cc1cccc(C#N)c1OCc1nn(C2CCC2)c2ccc(Br)cc12 [Compound 174c, ethyl 2-(2-((5-bromo-1-cyclobutyl-1H-indazol-3-yl)methoxy)-3-cyanophenyl)acetate] | 1000 to 10000 nM |
| CC(C)(C)OC(=O)N1CC(Cn2nc(COc3ccccc3CC(=O)O)c3cc(-c4ccc5ccnc(N)c5c4)ccc32)C1 [Compound 194g, 2-(2-((5-(1-aminoisoquinolin-7-yl)-1-((1-(tert-butoxycarbonyl)azetidin-3-yl)methyl)-1H-indazol-3-yl)methoxy)phenyl)acetic acid] | < 1000 nM |

| SMILES | IC50 |
| --- | --- |
| Cc1cccc(OCc2nn(C3CCCC3)c3ccc(-c4ccc5ccnc(N)c5c4)cc23)c1CC(=O)O [Compound 240b, 2-(2-((5-(1-aminoisoquinolin-7-yl)-1-cyclopentyl-1H-indazol-3-yl)methoxy)-6-methylphenyl)acetic acid] | < 1000 nM |
| CC(C)n1nc(COc2ccccc2CC(=O)O)c2cc(-c3cccc(-c4nn[nH]n4)c3)ccc21 [Compound 47c, 2-(2-((5-(3-(2H-tetrazol-5-yl)phenyl)-1-isopropyl-1H-indazol-3-yl)methoxy)phenyl)acetic acid] | > 10000 nM |
| Nc1nccc2c(-c3ccc4c(c3)c(C#Cc3ccccc3CC(=O)O)cn4C3CCOC3)cccc12 (stereo not shown) [Compound 301f, 2-(2-((5-(1-aminoisoquinolin-5-yl)-1-(tetrahydrofuran-3-yl)-1H-indol-3-yl)ethynyl)phenyl)acetic acid] | < 1000 nM |
| Nc1nccc2c(-c3ccc4c(c3)[C@H](Oc3ccccc3CC(=O)O)C[C@H]4N3CCCCC3)cccc12 [Compound 459f, (+)-trans 2-(2-(((1R,3R)-6-(1-aminoisoquinolin-5-yl)-3-(piperidin-1-yl)-2,3-dihydro-1H-inden-1-yl)oxy)phenyl)acetic acid] | < 1000 nM |
| COc1c(CN)cccc1-c1ccc2c(c1)c(COc1ccccc1CC(=O)O)nn2C(C)C [Compound 325b, 2-(2-((5-(3-(aminomethyl)-2-methoxyphenyl)-1-isopropyl-1H-indazol-3-yl)methoxy)phenyl)acetic acid] | < 1000 nM |
| COCCN1CC[C@H](n2nc3ccc(-c4cccc5c(N)nccc45)cc3c2COc2ccccc2CC(=O)O)C1 [Compound 117c, (S)-2-(2-((5-(1-aminoisoquinolin-5-yl)-2-(1-(2-methoxyethyl)pyrrolidin-3-yl)-2H-indazol-3-yl)methoxy)phenyl)acetic acid] | 1000 to 10000 nM |
| CC(C)n1nc(C(=O)Nc2ccccc2C(=O)O)c2cc(-c3cccc(C(=N)N)c3)ccc21 [Compound 1i, 2-(5-(3-carbamimidoylphenyl)-1-isopropyl-1H-indazole-3-carboxamido)benzoic acid] | 1000 to 10000 nM |
| CCOC(=O)N1CCC2(CC1)CC(Oc1cccc(C)c1CC(=O)O)c1cc(-c3ccc4ccnc(N)c4c3)ccc12 (stereo not shown) [Compound 404c, 2-(2-((5-(1-aminoisoquinolin-7-yl)-1′-(ethoxycarbonyl)-2,3-dihydrospiro[indene-1,4′-piperidin]-3-yl)oxy)-6-methylphenyl)acetic acid] | < 1000 nM |
| COc1ccc(CC(=O)O)c(OC2c3cc(-c4cccc5c(N)nccc45)ccc3CC2(C)C)c1 (stereo not shown) [Compound 440c, 2-(2-((6-(1-aminoisoquinolin-5-yl)-2,2-dimethyl-2,3-dihydro-1H-inden-1-yl)oxy)-4-methoxyphenyl)acetic acid] | < 1000 nM |
| CCCCn1nc(COc2ccccc2CC(=O)O)c2cc(-c3cccc4c(N)nccc34)ccc21 [Compound 185b, 2-(2-((5-(1-aminoisoquinolin-5-yl)-1-butyl-1H-indazol-3-yl)methoxy)phenyl)acetic acid] | < 1000 nM |
| Cc1cccc(OC2CC3(CCN(C(=O)OC(C)C)CC3)c3ccc(-c4ccc5ccnc(N)c5c4)cc32)c1CC(=O)O (stereo not shown) [Compound 383c, 2-(2-((5-(1-aminoisoquinolin-7-yl)-1′-(isopropoxycarbonyl)-2,3-dihydrospiro[indene-1,4′-piperidin]-3-yl)oxy)-6-methylphenyl)acetic acid] | < 1000 nM |
| COC(=O)N1CCC2(CC1)CC(Oc1cc(C)ccc1CC(=O)O)c1cc(-c3ccc4ccnc(N)c4c3)ccc12 (stereo not shown) [Compound 412c, 2-(2-((5-(1-aminoisoquinolin-7-yl)-1′-(methoxycarbonyl)-2,3-dihydrospiro[indene-1,4′-piperidin]-3-yl)oxy)-4-methylphenyl)acetic acid] | < 1000 nM |
| CCOC(=O)N1CCC2(CC1)CC(Oc1ccccc1CC(=O)O)c1cc(-c3ccc4ccnc(N)c4c3)ccc12 (stereo not shown) [Compound 349d, 2-(2-((5-(1-aminoisoquinolin-7-yl)-1′-(ethoxycarbonyl)-2,3-dihydrospiro[indene-1,4′-piperidin]-3-yl)oxy)phenyl)acetic acid] | < 1000 nM |
| Cn1c(=O)n(Cc2ccccc2CC(=O)O)c2cc(-c3ccc4ccnc(N)c4c3)ccc21 [Compound 217e, 2-(2-((6-(1-aminoisoquinolin-7-yl)-3-methyl-2-oxo-2,3-dihydro-1H-benzo[d]imidazol-1-yl)methyl)phenyl)acetic acid] | > 10000 nM |
| Nc1nccc2c(-c3ccc4c(c3)c(COc3ccccc3CC(=O)O)nn4[C@@H]3CCOC3)cccc12 [Compound 245h, (R)-2-(2-((5-(1-aminoisoquinolin-5-yl)-1-(tetrahydrofuran-3-yl)-1H-indazol-3-yl)methoxy)phenyl)acetic acid] | < 1000 nM |
